In patent US20180360042A1, “Liquid fungicide-containing formulations” (BAYER CROPSCIENCE AKTIENGESELLSCHAFT, priority 2015, published 2018):

Tests used:
[1] = Determination of compound (III) content in prothioconazole formulations after storage at 54° C. for 2 weeks; format: physicochemical; details: PTZ EC 250 after storage at 54° C. over 2 weeks
Experimental: (§1) Determination of 2-(1-chlorocyclopropyl)-1-(2-chlorophenyl)-3-(1H-1,2,4-triazol-1-yl)propan-2-ol (Compound III) in Formulations
(§2) 2-(1-Chlorocyclopropyl)-1-(2-chlorophenyl)-3-(1H-1,2,4-triazol-1-yl)propan-2-ol is separated from the formulation constituents on a reverse phase column using an isocratic eluent. After MS/MS detection, the quantitative evaluation is conducted by comparing the peak areas with those of the reference object, using an external standard.
(§3) High-pressure liquid chromatograph: HP 1090
(§4) Sample injection: HP 1090 Autoinjector
(§5) Mass spectrometer: Quattro I, Fisons
(§6) Integration and evaluation: MassLynx from Micromass
Example 9: Comparison of Compound (III) Content of the Formulations from Examples 1 to 4 after Storage at 54° C. for 2 Weeks

[2] = Determination of compound (III) content in prothioconazole formulations by HPLC-MS/MS, starting samples; format: physicochemical; details: PTZ EC 250 starting sample
Experimental: as §1, §2, §3, §4, §5, §6

[3] = addition of 10% wt/wt Hallcomid vs 0%
[4] = addition of 20% wt/wt Hallcomid vs 0%

C=CCCCCCCCC(=O)N(C)C [Hallcomid®, N,N-dimethyl 9-decenamide]
reduction in the content of compound (III) [1, 3]: 75% | reduction in the content of compound (III) [1, 4]: 82% | reduction in the content of compound (III) ([1]; addition of 56.9% wt/wt Hallcomid vs 0%): 98% | reduction of the content of compound (III) [2, 3]: 72% | reduction of the content of compound (III) [2, 4]: 76% | reduction of the content of compound (III) ([2]; addition of 54.9% wt/wt Hallcomid vs 0%): 97%
